One compound from PubChem BioAssay AID1259411 (Chemical Carcinogenesis Research Information System (CCRIS), 2018) can be followed below.

The data set deals with rodent carcinogenicity bioassays, tumor incidence. Nature of the data set: CCRIS carcinogenicity studies. From the text:
The CCRIS database contains chemical records with carcinogenicity, mutagenicity, tumor promotion, and tumor inhibition test results. It was developed by the National Cancer Institute (NCI). Data are derived from studies cited in primary journals, current awareness tools, NCI reports, and other sources. Test results have been reviewed by experts in carcinogenesis and mutagenesis.
CCRIS provides historical information from the years 1985 - 2011. It is no longer updated.
This is an archive assay for CCRIS carcinogenicity studies.

Activity calls are given as the source filed them. No rule for the calls is given here.

For `C=CCl`, the carcinogen call runs as follows: (Species: HAMSTER, Strain/Sex: SYRIAN/MALE, Route: INHALATION, Dose: 0, 50, 250, 500, 2500, 6000, 10000 PPM 4 HR/D, 5 D/WK FOR (STUDY DURATION: 109 WK), Dose: 0, 50, 250, 500, 2500, 6000, 10000 PPM 4 HR/D, 5 D/WK FOR (STUDY DURATION: 109 WK), Tumor Site: Type of Lesion: INTEGUMENTARY SYSTEM (SKIN): EPITHELIOMA, FORESTOMACH: PAPILLOMA OR ACANTHOMA, LIVER: ANGIOMA OR ANGIOSARCOMA, Tumor Site: Type of Lesion: INTEGUMENTARY SYSTEM (SKIN): EPITHELIOMA, FORESTOMACH: PAPILLOMA OR ACANTHOMA, LIVER: ANGIOMA OR ANGIOSARCOMA) “active; positive”; (Species: HAMSTER, Strain/Sex: SYRIAN, Route: INHALATION, Tumor Site: Type of Lesion: LIVER) “active; positive”; (Species: HUMAN, Route: INHALATION, Tumor Site: Type of Lesion: LIVER, BRAIN, LUNG, Tumor Site: Type of Lesion: LIVER, BRAIN, LUNG) “active; positive”; (Species: MOUSE, Strain/Sex: ICR/FEMALE, Route: INHALATION, Dose: 0, 50, 500, 5000, 50000 PPM ONCE FOR 1 HR (STUDY DURATION: 18 MO), Dose: 0, 50, 500, 5000, 50000 PPM ONCE FOR 1 HR (STUDY DURATION: 18 MO), Tumor Site: Type of Lesion: LUNG: ALVEOLAR/BRONCHIOLAR ADENOMA OR CARCINOMA) “active; positive”; (Species: MOUSE, Strain/Sex: ICR/MALE, Route: INHALATION, Dose: 0, 50, 500, 5000, 50000 PPM ONCE FOR 1 HR (STUDY DURATION: 18 MO), Dose: 0, 50, 500, 5000, 50000 PPM ONCE FOR 1 HR (STUDY DURATION: 18 MO), Tumor Site: Type of Lesion: LUNG: ALVEOLAR/BRONCHIOLAR ADENOMA OR CARCINOMA) “active; positive”; (Species: MOUSE, Strain/Sex: SWISS/MALE,FEMALE, Route: INHALATION, Dose: 0, 50, 250, 500, 2500, 6000, 10000 PPM 4 HR/D, 5 D/WK FOR 30 WK (STUDY DURATION: 81 WK), Dose: 0, 50, 250, 500, 2500, 6000, 10000 PPM 4 HR/D, 5 D/WK FOR 30 WK (STUDY DURATION: 81 WK), Tumor Site: Type of Lesion: LIVER: ANGIOMA, ANGIOSARCOMA, LUNG: TUMOR (NOS), MAMMARY GLAND: CARCINOMA, Tumor Site: Type of Lesion: LIVER: ANGIOMA, ANGIOSARCOMA, LUNG: TUMOR (NOS), MAMMARY GLAND: CARCINOMA) “active; positive”. In addition, the carcinogen call (Species: MOUSE, Strain/Sex: SWISS, Route: INHALATION, Tumor Site: Type of Lesion: LIVER, LUNG, MAMMARY GLAND, Tumor Site: Type of Lesion: LIVER, LUNG, MAMMARY GLAND) is “active; positive”; the carcinogen call (Species: RAT, Route: INHALATION, Tumor Site: Type of Lesion: LIVER, LUNG, KIDNEY, EAR (ZYMBAL GLAND), Tumor Site: Type of Lesion: LIVER, LUNG, KIDNEY, EAR (ZYMBAL GLAND)) is “active; positive”; the carcinogen call (Species: RAT, Strain/Sex: SPRAGUE-DAWLEY/FEMALE, Route: GAVAGE, Dose: 0, 0.03, 0.3, 1, 3.33, 16.65, 50 MG/KG BW IN OLIVE OIL 1/D 4-5 D/WK FOR 52-59 WK (STUDY DURATION: LIFETIME), Dose: 0, 0.03, 0.3, 1, 3.33, 16.65, 50 MG/KG BW IN OLIVE OIL 1/D 4-5 D/WK FOR 52-59 WK (STUDY DURATION: LIFETIME), Tumor Site: Type of Lesion: [BRAIN WAS ONLY SITE EVALUATED]) was “inactive; negative”; the carcinogen call (Species: RAT, Strain/Sex: SPRAGUE-DAWLEY/FEMALE, Route: INHALATION, Dose: 0, 50, 250, 500, 2500, 6000, 10000 PPM IN AIR 4 HR/D 5 D/WK FOR 17 WK (STUDY DURATION: LIFETIME), Dose: 0, 50, 250, 500, 2500, 6000, 10000 PPM IN AIR 4 HR/D 5 D/WK FOR 17 WK (STUDY DURATION: LIFETIME), Tumor Site: Type of Lesion: BRAIN: NEUROBLASTOMA [ONLY SITE EVALUATED]) is “active; positive”; the carcinogen call (Species: RAT, Strain/Sex: SPRAGUE-DAWLEY/FEMALE, Route: INHALATION, Dose: 0, 2500 PPM 4 HR/D 5 D/WK FOR 7 WK THEN 7 HR/D 5 D/WK FOR 8 WK ADMINISTERED TO RAT EMBRYOS BEGINNING ON 12TH DAY OF GEST, Tumor Site: Type of Lesion: LIVER: HEPATOMA, ANGIOSARCOMA, BRAIN: NEUROBLASTOMA) is “active; positive”; the carcinogen call (Species: RAT, Strain/Sex: SPRAGUE-DAWLEY/FEMALE, Route: INHALATION, Dose: 0, 2500 PPM 4 HR/D 5 D/WK FOR 7 WK THEN 7 HR/D 5 D/WK FOR 69 WK ADMINISTERED TO BREEDER RATS (STUDY DURATION: 76 WK), Tumor Site: Type of Lesion: BRAIN: NEUROBLASTOMA, LIVER, HEPATOCARCINOMA, ANGIOSARCOMA, Tumor Site: Type of Lesion: BRAIN: NEUROBLASTOMA, LIVER, HEPATOCARCINOMA, ANGIOSARCOMA) is “active; positive”. The carcinogen call is “active; positive” (Species: RAT, Strain/Sex: SPRAGUE-DAWLEY/FEMALE, Route: INHALATION, Dose: 0, 2500 PPM 4 HR/D 5 D/WK FOR 7 WK THEN 7 HR/D 5 D/WK FOR 69 WK ADMINISTERED TO RAT EMBRYOS BEGINNING ON 12TH DAY OF GES, Tumor Site: Type of Lesion: BRAIN: NEUROBLASTOMA, LIVER, HEPATOCARCINOMA, ANGIOSARCOMA, Tumor Site: Type of Lesion: BRAIN: NEUROBLASTOMA, LIVER, HEPATOCARCINOMA, ANGIOSARCOMA) and “inactive; negative” (Species: RAT, Strain/Sex: SPRAGUE-DAWLEY/FEMALE, Route: INHALATION, Dose: 0, 6000, 10000 PPM IN AIR 1 HR/D 4 D/WK FOR 25 WK (STUDY DURATION: LIFETIME), Dose: 0, 6000, 10000 PPM IN AIR 1 HR/D 4 D/WK FOR 25 WK (STUDY DURATION: LIFETIME), Tumor Site: Type of Lesion: [BRAIN WAS ONLY SITE EVALUATED]).
